Like-named read-outs stand apart in the source and are kept apart here.

Series [1] deals with Pyricularia oryzae (rice blast). In words: whole plant or invertebrate. It is filed as in vivo. The conditions noted are these: foliar, read-out: RICE BLAST control rating.
Series [2] concerns Southern corn rootworm (Diabrotica undecimpuctata howardi Barber). In words: Mite/insect screen, corn rootworm. It counts as in vivo. As to conditions: soil; for mortality at 12 ppm / mortality at 24 ppm: Diabrotica, read-out: CRW results (percent mortality). On the procedure: (§1) The compounds of Examples were tested for miticidal and insecticidal activity in the following mite/insect screen.
(§2) Each test compound was formulated by dissolving the compound in acetone/alcohol (50:50) mixture containing 23 g of "TOXIMUL R" (sulfonate/nonionic emulsifier blend) and 13 g of "TOXIMUL S" (sulfonate/nonionic emulsifier blend) per liter. These mixtures were then diluted with water to give the indicated concentrations.
Activity on Southern corn rootworm (Diabrotica undecimpuctata howardi Barber) was evaluated by adding two ml of tap water, a presoaked corn seed, and 15 g of dry sandy soil to a one ounce plastic container. The soil was treated with 1 mL of test solution containing a predetermined concentration of test compound. After six to 12 hours of drying, five 2-3 instar corn rootworm larvae were added to the individual cups, which were then capped and held at 23° C.
(§3) After standard exposure periods, percent mortality and phytotoxicity were evaluated. […] The following abbreviations are used in Table 3:
CRW refers to corn rootworm

Series [3] has as its system southern armyworm (Spodopetra eridania Cramer). In words: Mite/insect screen, Southern armyworm. It counts as in vivo. As to conditions: for mortality at 200 ppm / mortality at 400 ppm: Spodoptera eridania, read-out: SAW results (percent mortality). The procedure: as §1, §2
(§4) Twospotted spider mites (Tetranychus urticae Koch) and melon aphids (Aphis gossvpii Glover) were introduced on squash cotyledons and allowed to establish on both leaf surfaces. Other plants in the same treatment pot were left uninfested. The leaves were then sprayed with 5 ml of test solution using a DeVilbiss atomizing sprayer at 10 psi. Both surfaces of the leaves were covered until runoff, and then allowed to dry for one hour. Two uninfested leaves were then excised and placed into a Petri dish containing larval southern armyworm (Spodopetra eridania Cramer).
as §3
SAW refers to Southern armyworm

Series [4] relates to Twospotted spider mites (Tetranychus urticae Koch). In words: Mite/insect screen, twospotted spider mites. It is filed as in vivo. As to conditions: Tetranychus urticae, read-out: SM results (percent mortality). On the procedure:
as §1, §2, §4, §3
SM refers to twospotted spider mites

The test system of series [5] is melon aphids (Aphis gossvpii Glover). In words: Mite/insect screen, melon aphids. It counts as in vivo. The conditions noted are these: for mortality at 200 ppm / mortality at 400 ppm: Aphis, read-out: MA results (percent mortality). The procedure: as §1, §2, §4, §3
MA refers to melon aphids.

Series [6] deals with Puccinia recondita tritici (leaf rust). In words: Plant pathology screen (Test 1), leaf rust on wheat. As to conditions: in Triticum aestivum, foliar, read-out: LEAF RUST control rating.
Series [7] has as its system Pseudoperonospora cubensis (downy mildew). In words: Plant pathology screen (Test 1), downy mildew on squash. As to conditions: foliar, read-out: DOWN MDEW control rating.
In series [8] the test system is Erysiphe graminis tritici (powdery mildew). In words: Plant pathology screen (Test 1), powdery mildew on wheat. As to conditions: Blumeria graminis, in Triticum aestivum, foliar, read-out: POWD MDEW control rating.
Series [9] concerns Botrytis cinerea (gray mold). In words: Plant pathology screen (Test 1), gray mold on grape berries. As to conditions: read-out: GRAY MOLD control rating.
Method: This screen was used to evaluate the efficacy of the present compounds against a variety of different organisms that cause plant diseases.
The test compounds were formulated for application by dissolving 50 mg of the compound into 1.25 ml of solvent. The solvent was prepared by mixing 50 ml of "Tween 20" (polyoxyethylene (20) sorbitan monolaurate emulsifier) with 475 ml of acetone and 475 ml of ethanol. The solvent/compound solution was diluted to 125 ml with deionized water. The resulting formulation contains 400 ppm test chemical. Lower concentrations were obtained by serial dilution with the solvent-surfactant mixture.
The formulated test compounds were applied by foliar spray. The following plant pathogens and their corresponding plants were employed.
The formulated technical compounds were sprayed on all foliar surfaces of the host plants (or cut berry) to past run-off. Single pots of each host plant were placed on raised, revolving pedestals in a fume hood. Test solutions were sprayed on all foliar surfaces. All treatments were allowed to dry and the plants were inoculated with the appropriate pathogens within 2-4 hours.
The effectiveness of test compounds in controlling disease was rated using the following scale.

With `Cc1oc2ncnc(OCCCc3cccnc3)c2c1C` [Example 13, 5,6-dimethyl-4-[3-(3-pyridinyl)propoxy]furo[2,3-d]pyrimidine], the pest or weed control at 400 µg/mL in series [1], in [6], in series [7], in [8] and in [9] was 0 to 19% in each case. Moreover, the mortality at 12 ppm in series [2] (CRW rate 12.00 ppm) was 0%. Further, the mortality at 24 ppm in series [2] (CRW rate 24.00 ppm) is 100%. Besides, the mortality at 200 ppm was 0% in series [3] (rate 200 ppm, sprayed leaves); 0% in series [4] (rate 200 ppm, sprayed leaves); 0% in series [5] (rate 200 ppm, sprayed leaves). Besides, the mortality at 400 ppm in series [3] (rate 400 ppm, sprayed leaves) was found to be 0%; in [4] (rate 400 ppm, sprayed leaves) it was 0%; in series [5] (rate 400 ppm, sprayed leaves), 0%.
With `Cc1oc2ncnc(NCCSCc3c(F)cccc3Cl)c2c1C` [Example 14, 5,6 dimethyl-N-[2-[[(2-chloro-6-fluorophenyl)methyl]thio]ethyl]furo[2,3-d]pyrimidin-4-amine], the pest or weed control at 400 µg/mL in series [1], in [6], in series [7], in [8] and in series [9] was 0 to 19% each time. Also, the mortality at 12 ppm in series [2] (CRW rate 12.00 ppm) is 0%. Further, in [2] (CRW rate 24.00 ppm), the mortality at 24 ppm came out at 0%. Moreover, the mortality at 200 ppm in series [3] (rate 200 ppm, sprayed leaves) turned out to be 0%; in series [4] (rate 200 ppm, sprayed leaves) it was 0%; in series [5] (rate 200 ppm, sprayed leaves), 0%. Also, the mortality at 400 ppm is 0% in [3] (rate 400 ppm, sprayed leaves); 0% in series [4] (rate 400 ppm, sprayed leaves); 0% in [5] (rate 400 ppm, sprayed leaves).
Regarding `COc1ccc(CCNc2ncnc3occc23)cc1` [Example 15, N-[2-(4-methyloxyphenyl)ethyl]furo[2,3-d]pyrimidin-4-amine], the pest or weed control at 400 µg/mL in [1] was in the range of 20 to 89%; in series [6], 90 to 100%; in [7] it was 90 to 100%; in series [8], 20 to 89%; in series [9], 0 to 19%. For the same molecule, the mortality at 12 ppm in series [2] (CRW rate 12.00 ppm) was 0%. The mortality at 24 ppm in series [2] (CRW rate 24.00 ppm) was determined as 0%. Besides, the mortality at 200 ppm amounted to 0% in series [3] (rate 200 ppm, sprayed leaves); 0% in [4] (rate 200 ppm, sprayed leaves); 0% in series [5] (rate 200 ppm, sprayed leaves). Moreover, the mortality at 400 ppm in [3] (rate 400 ppm, sprayed leaves) was determined as 0%; in series [4] (rate 400 ppm, sprayed leaves), 0%; in series [5] (rate 400 ppm, sprayed leaves), 0%.
`Cc1coc2ncnc(NCCSCc3c(F)cccc3Cl)c12` [Example 16, 5-methyl-N-[2-[[ (2-chloro-6-fluorophenyl)methyl]thio]ethyl]furo[2,3-d]pyrimidin-4-amine]: the pest or weed control at 400 µg/mL in series [1], in series [6], in series [7], in series [8] and in [9] was 0 to 19% throughout. Also, the mortality at 12 ppm in series [2] (CRW rate 12.00 ppm) was 0%. In [2] (CRW rate 24.00 ppm), the mortality at 24 ppm amounted to 0%. In addition, the mortality at 200 ppm in series [3] (rate 200 ppm, sprayed leaves) was 0%; in series [4] (rate 200 ppm, sprayed leaves), 0%; in series [5] (rate 200 ppm, sprayed leaves) it was 0%. Also, the mortality at 400 ppm in series [3] (rate 400 ppm, sprayed leaves) amounted to 0%; in series [4] (rate 400 ppm, sprayed leaves), 0%; in [5] (rate 400 ppm, sprayed leaves), 0%.
Take `Cc1oc2ncnc(OC3CN4CCC3CC4)c2c1C` (centres unmarked) [Example 17, 5,6-dimethyl-4-(1-azabicyclo[2.2.2]oct-3-yloxy)furo[2,3-d]pyrimidine]: the pest or weed control at 400 µg/mL in series [1], in series [6], in series [7], in series [8] and in [9] was 0 to 19% in each case. Moreover, in series [2], the mortality at 12 ppm stood at 0%. For the same molecule, the mortality at 24 ppm in series [2] was 0%. Moreover, the mortality at 200 ppm in series [3], in [4] and in series [5] was 0% each time. Further, the mortality at 400 ppm in series [3], in [4] and in series [5] was 0% throughout.
Consider `Cc1oc2ncnc(NCCC3CCC4CCCCC4C3)c2c1C` (centres unmarked) [Example 18, N-[2-(decahydro-2-naphthyl)ethyl]-5,6-dimethylfuro[2,3-d]pyrimidin-4-amine], for which the pest or weed control at 400 µg/mL in [1] is 0 to 19%; in series [6] it was 0 to 19%; in series [7] it was 0 to 19%; in series [8], 0 to 19%; in [9], 20 to 89%. The mortality at 12 ppm in series [2] (CRW rate 12.00 ppm) was found to be 0%. Besides, the mortality at 24 ppm in series [2] (CRW rate 24.00 ppm) was 0%. Moreover, the mortality at 200 ppm in series [3] (rate 200 ppm, sprayed leaves) is 0%; in series [4] (rate 200 ppm, sprayed leaves), 0%; in series [5] (rate 200 ppm, sprayed leaves) it was 0%. Moreover, the mortality at 400 ppm in series [3] (rate 400 ppm, sprayed leaves) came to 0%; in series [4] (rate 400 ppm, sprayed leaves), 0%; in series [5] (rate 400 ppm, sprayed leaves) it was 0%.
As to `Cc1coc2ncnc(NCCc3ccccc3)c12` [Example 19, 5-methyl-N-(2-phenylethyl)furo[2,3-d]pyrimidin-4-amine], the pest or weed control at 400 µg/mL lay in the range of 0 to 19% in [1]; 90 to 100% in series [6]; 90 to 100% in [7]; 20 to 89% in series [8]; 0 to 19% in series [9]. Further, the mortality at 12 ppm in series [2] (CRW rate 12.00 ppm) worked out at 0%. Further, the mortality at 24 ppm in [2] (CRW rate 24.00 ppm) amounted to 0%. Besides, the mortality at 200 ppm in [3] (rate 200 ppm, sprayed leaves) came to 0%; in series [4] (rate 200 ppm, sprayed leaves), 0%; in [5] (rate 200 ppm, sprayed leaves), 0%. Besides, the mortality at 400 ppm in series [3] (rate 400 ppm, sprayed leaves) was 0%; in series [4] (rate 400 ppm, sprayed leaves), 0%; in series [5] (rate 400 ppm, sprayed leaves) it was 90%.
Take `Cc1oc2ncnc(NCCc3ccc(C(C)(C)C)cc3)c2c1C` [Example 20, N-[2-[4-(t-butyl)phenyl]ethyl]-5,6-dimethylfuro[2,3-d]pyrimidin-4-amine]: the pest or weed control at 400 µg/mL was 20 to 89% in series [1]; 90 to 100% in series [6]; 90 to 100% in [7]; 0 to 19% in series [8]; 0 to 19% in series [9]. In series [2] (CRW rate 24.00 ppm), the “CRW results (percent mortality)” value was determined as 0%. Also, in [2] (CRW rate 12.00 ppm), the mortality at 12 ppm was 0%. In addition, the mortality at 24 ppm in series [2] (CRW rate 24.00 ppm) worked out at 0%. Further, the mortality at 200 ppm in series [3] (rate 200 ppm, sprayed leaves) is 0%; in series [4] (rate 200 ppm, sprayed leaves), 0%; in series [5] (rate 200 ppm, sprayed leaves), 0%. In addition, the mortality at 400 ppm turned out to be 0% in series [3] (rate 400 ppm, sprayed leaves) and 0% in series [5] (rate 400 ppm, sprayed leaves). Further, the “SAW results (percent mortality)” value in series [3] (rate 400 ppm, sprayed leaves) amounted to 0%. Further, in [5] (rate 400 ppm, sprayed leaves), the “MA results (percent mortality)” value is 0%.
For `Cc1coc2ncnc(NCCc3ccc4ccccc4c3)c12` [Example 21, 5-methyl-N-[2-(2-naphthyl)ethyl]furo[2,3-d]pyrimidin-4-amine], the pest or weed control at 400 µg/mL was in the range of 0 to 19% in [1]; 90 to 100% in [6]; 90 to 100% in series [7]; 90 to 100% in [8]; 0 to 19% in series [9]. For the same molecule, the mortality at 12 ppm in [2] (CRW rate 12.00 ppm) was found to be 100%. In addition, in series [2] (CRW rate 24.00 ppm), the mortality at 24 ppm amounted to 100%. The mortality at 200 ppm in [3] (rate 200 ppm, sprayed leaves) is 0%; in series [4] (rate 200 ppm, sprayed leaves), 80%; in [5] (rate 200 ppm, sprayed leaves), 100%. Also, the mortality at 400 ppm is 0% in series [3] (rate 400 ppm, sprayed leaves); 60% in [4] (rate 400 ppm, sprayed leaves); 80% in [5] (rate 400 ppm, sprayed leaves).

The values above are taken from patent US5486516A, “Furopyrimidine derivatives” (DowElanco, priority 1993, dated 1996).
